# Measured values from publication PMC9481151, “Discovery of new symmetrical and asymmetrical nitrile-containing 1,4-dihydropyridine derivatives as dual kinases and P-glycoprotein inhibitors: synthesis, in vitro assays, and in silico studies” (Journal of Enzyme Inhibition and Medicinal Chemistry, 2022).
# Where two headings read alike, the source gives them in different places.
# Experiments:
# [1] = test system: B. subtilis; experiment: MIC, two-fold microbroth dilution method; conditions: Bacillus subtilis
# [2] = test system: E. coli; experiment: MIC, two-fold microbroth dilution method; conditions: Escherichia coli, read-out: MIC (µg/mL) E. coli
# [3] = test system: P. aeruginosa; experiment: MIC, two-fold microbroth dilution method; conditions: Pseudomonas aeruginosa, read-out: MIC (µg/mL) P. aeruginosa
# [4] = test system: Staphylococcus aureus; experiment: Agar well diffusion method
# [5] = test system: Bacillus subtilis; experiment: Agar well diffusion method
# [6] = test system: Pseudomonas aeruginosa; experiment: Agar well diffusion method
# [7] = test system: G positive and G negative bacteria; experiment: Agar well diffusion method, summary; format: cell-based; conditions: reference drug, range over four strains
# Source text: As a control, DMSO solvent was employed.
# [8] = test system: S. aureus; experiment: MIC, two-fold microbroth dilution method; conditions: Staphylococcus aureus
# [9] = test system: Escherichia coli; experiment: Agar well diffusion method
# [10] = test system: Aspergillus flavus; experiment: Agar well diffusion method
# [11] = test system: Candida albicans; experiment: Agar well diffusion method
# [12] = test system: A. flavus; experiment: MIC, two-fold microbroth dilution method; conditions: Aspergillus flavus, read-out: MIC (µg/mL) A. flavus
# [13] = test system: C. albicans; experiment: MIC, two-fold microbroth dilution method; conditions: Candida albicans, read-out: MIC (µg/mL) C. albicans
# [14] = test system: fungi (Candida albicans and Aspergillus flavus); experiment: Agar well diffusion method, summary; conditions: range over strains
# [15] = test system: L-type calcium channels; conditions: cited from earlier work
smiles,measurement,setting,value
"O=C(O)c1cn(C2CC2)c2cc(N3CCNCC3)c(F)cc2c1=O [Ciprofloxacin, reference compound]",MIC,"[1]; 24 h, read-out: MIC, B. subtilis",2 µg/mL
same,MIC,[1]; read-out: MIC (µg/mL) B. subtilis,2 µg/mL
same,MIC,[2],0.5 µg/mL
same,MIC,[3],1 µg/mL
same,zone of inhibition at 1000 µg/mL,"[4]; Staphylococcus aureus, 24 h, read-out: Diameter of inhibition zone, S. aureus",24 mm
same,"% activity index, S. aureus",[4]; relative to ciprofloxacin,100%
same,zone of inhibition at 1000 µg/mL,"[5]; Bacillus subtilis, 24 h, read-out: Diameter of inhibition zone, B. subtilis",23 mm
same,"% activity index, B. subtilis",[5]; relative to ciprofloxacin,100%
same,zone of inhibition at 1000 µg/mL,"[6]; Pseudomonas aeruginosa, 24 h, read-out: Diameter of inhibition zone, P. aeruginosa",23 mm
same,"% activity index, P. aeruginosa",[6]; relative to ciprofloxacin,100%
same,DIZs against bacteria,[7],23–26 mm
same,MIC,"[8]; 24 h, read-out: MIC, S. aureus",1 µg/mL
same,MIC,[8]; read-out: MIC (µg/mL) S. aureus,1 µg/mL
same,zone of inhibition at 1000 µg/mL,"[9]; Escherichia coli, 24 h, read-out: Diameter of inhibition zone, E. coli",26 mm
same,"% activity index, E. coli",[9]; relative to ciprofloxacin,100%
"Clc1ccccc1C(c1ccccc1)(c1ccccc1)n1ccnc1 [Clotrimazole, reference compound]",zone of inhibition at 1000 µg/mL,"[10]; Aspergillus flavus, 24 h, read-out: Diameter of inhibition zone, A. flavus",25 mm
same,"% activity index, A. flavus",[10]; relative to clotrimazole,100%
same,zone of inhibition at 1000 µg/mL,"[11]; Candida albicans, 24 h, read-out: Diameter of inhibition zone, C. albicans",27 mm
same,"% activity index, C. albicans",[11]; relative to clotrimazole,100%
same,MIC,[12],1 µg/mL
same,MIC,[13],2 µg/mL
same,DIZs against fungi,[14],25–27 mm
"COC(=O)C1=C(C)NC(C)=C(C(=O)OCCCN2CCC(c3ccccc3)(c3ccccc3)CC2)[C@@H]1c1cccc([N+](=O)[O-])c1 [Dexniguldipine, dexniguldipine]",times less potent than (+)-niguldipine in its interaction with L-type calcium channels,[15],40
